In patent US4740233A, “Substituted 1,2,4-triazolo[1,5-a]-pyrimidine-2-sulfonamides and compositions and methods of controlling undesired vegetation and suppressing the nitrification of ammonium nitrogen in soil” (The Dow Chemical Company, priority 1986, dated 1988):

Columns and labels:
cotton = experiment: Preemergent control of plant species; type: in vivo, Gossypium spp.; settings: Gossypium hirsutum, pre-emergence, 336 h; 0.25 lb/acre; read-out: percent preemergent control
Summary of the method: (§1)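 Growth reduction relative to untreated plants of the same species, assessed two weeks after treatment, defines the control value. Compositions, mostly aqueous emulsions, were deposited uniformly on seeded greenhouse soil beds at the tabulated rates, with a water-treated bed as reference.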

rape = experiment: Preemergent control of plant species; type: in vivo, Brassica napus; settings: Brassica napus, pre-emergence, 336 h; 0.25 lb/acre; read-out: percent preemergent control
Summary of the method: as §1

soybean = experiment: Preemergent control of plant species; type: in vivo, Glycine max.; settings: Glycine max, pre-emergence, 336 h; 0.25 lb/acre; read-out: percent preemergent control
Summary of the method: as §1

sugar beet = experiment: Preemergent control of plant species; type: in vivo, Beta saccharifera; settings: Beta vulgaris, pre-emergence, 336 h; 0.25 lb/acre; read-out: percent preemergent control
Summary of the method: as §1

jimsonweed = experiment: Preemergent control of plant species; type: in vivo, Datura stramonium; settings: Datura stramonium, pre-emergence, 336 h; 0.25 lb/acre; read-out: percent preemergent control
Summary of the method: as §1

annual morning glory = experiment: Preemergent control of plant species; type: in vivo, Ipomoea spp.; settings: Ipomoea, pre-emergence, 336 h; 0.25 lb/acre; read-out: percent preemergent control
Summary of the method: as §1

pigweed = experiment: Preemergent control of plant species; type: in vivo, Amaranthus spp.; settings: Amaranthus retroflexus, pre-emergence, 336 h; 0.25 lb/acre; read-out: percent preemergent control
Protocol: (§2) The seeds of various species of plants were planted in beds of good agricultural soil in a greenhouse. A number of compositions of the present invention, generally in the nature of an aqueous emulsion, were applied at rates listed in the table so as to deposit a predetermined amount of active ingredients uniformly throughout the surface of the bed. Another seed bed was treated only with water to serve as a control. After treatment the seed beds were maintained for two weeks under greenhouse conditions conducive for good plant growth and watered as necessary. Control refers to the reduction in growth compared to the observed results of the same untreated species.

velvetleaf = experiment: Preemergent control of plant species; type: in vivo, Abutilon theophrasti; settings: Abutilon theophrasti, pre-emergence, 336 h; 0.25 lb/acre; read-out: percent preemergent control
Summary of the method: as §1

corn = experiment: Preemergent control of plant species; type: in vivo, Zea mays; settings: Zea mays, pre-emergence, 336 h; 0.25 lb/acre; read-out: percent preemergent control
Summary of the method: as §1

rice [1] = experiment: Preemergent control of plant species; type: in vivo, Oryza sativa; settings: Oryza sativa, pre-emergence, 336 h; 0.25 lb/acre; read-out: percent preemergent control
Summary of the method: as §1

sorghum = experiment: Preemergent control of plant species; type: in vivo, Sorghum vulgare; settings: Sorghum, pre-emergence, 336 h; 0.25 lb/acre; read-out: percent preemergent control
Summary of the method: as §1

wheat = experiment: Preemergent control of plant species; type: in vivo, Triticum aestivum; settings: Triticum aestivum, pre-emergence, 336 h; 0.25 lb/acre; read-out: percent preemergent control
Summary of the method: as §1

barnyardgrass [2] = experiment: Preemergent control of plant species; type: in vivo, Echinochloa crusgalli; settings: Echinochloa crus-galli, pre-emergence, 336 h; 0.25 lb/acre; read-out: percent preemergent control
Summary of the method: as §1

crabgrass = experiment: Preemergent control of plant species; type: in vivo, Digitaria spp.; settings: Digitaria sanguinalis, pre-emergence, 336 h; 0.25 lb/acre; read-out: percent preemergent control
Protocol: as §2

johnson grass = experiment: Preemergent control of plant species; type: in vivo, Sorghum halepense; settings: Sorghum halepense, pre-emergence, 336 h; 0.25 lb/acre; read-out: percent preemergent control
Summary of the method: as §1

wild oats = experiment: Preemergent control of plant species; type: in vivo; settings: Avena fatua, pre-emergence, 336 h; 0.25 lb/acre; read-out: percent preemergent control
Summary of the method: as §1

yellow foxtail = experiment: Preemergent control of plant species; type: in vivo, Setaria lutescens; settings: Setaria, pre-emergence, 336 h; 0.25 lb/acre; read-out: percent preemergent control
Summary of the method: as §1

yellow nutsedge [3] = experiment: Preemergent control of plant species; type: in vivo, Cyperus esculentus; settings: Cyperus, pre-emergence, 336 h; 0.25 lb/acre; read-out: percent preemergent control
Summary of the method: as §1

rice [4] = experiment: Control of aquatic plant species (paddy water); type: in vivo, Oryza sativa; settings: Oryza sativa, 216 h, nine days, read-out: Percent control; for pest or weed control at 31 g/ha: 0.031 Kg/Ha; for pest or weed control at 1000 g/ha: 1.0 Kg/Ha
Summary of the method: (§3)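 1-2 inch plants transplanted into ~2 in soil, flooded ~1 in deep; acetone concentrate injected into floodwater, volume adjusted for target concentration; % control scored at 9 days.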

barnyardgrass [5] = experiment: Control of aquatic plant species (paddy water); type: in vivo, Echinochloa crusgalli; settings: Echinochloa crus-galli, 216 h, nine days, read-out: Percent control; for pest or weed control at 31 g/ha: 0.031 Kg/Ha; for pest or weed control at 1000 g/ha: 1.0 Kg/Ha
Protocol: In testing for such utility, the plant species to be tested were transplanted into 16 oz. containers into about 2 inches of soil when they were in the 1-2 inch stage and then flooded to a depth of about 1 inch. An acetone concentrate of the chemical to be tested was then injected into the paddy water, the volume injected being varied as desired to provide the desired concentration. Percent control was evaluated nine days after application.

sprangletop = experiment: Control of aquatic plant species (paddy water); type: in vivo, Leptochloa filiformis; settings: Leptochloa filiformis, 216 h, nine days, read-out: Percent control; for pest or weed control at 31 g/ha: 0.031 Kg/Ha; for pest or weed control at 1000 g/ha: 1.0 Kg/Ha
Summary of the method: as §3

yellow nutsedge [6] = experiment: Control of aquatic plant species (paddy water); type: in vivo, Cyperus esculentus; settings: Cyperus, 216 h, nine days, read-out: Percent control; for pest or weed control at 31 g/ha: 0.031 Kg/Ha; for pest or weed control at 1000 g/ha: 1.0 Kg/Ha
Summary of the method: as §3

[7] = system: nitrification of ammonium nitrogen; experiment: Suppression of nitrification of ammonium nitrogen in soil; settings: 27° C.
Summary of the method: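 Soil (20 g) moistened to its 1/3 bar tension value, mixed with test chemical and incubated sealed for two weeks at 27° C. Nitrate extracted with ammonium sulfate solution and measured by nitrate-specific ion electrode; value given as % NH4-N remaining.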

Row | SMILES | plant injury at 280.212 g/ha (cotton) | plant injury at 280.212 g/ha (rape) | plant injury at 280.212 g/ha (soybean) | plant injury at 280.212 g/ha (sugar beet) | pest or weed control at 280.212 g/ha (jimsonweed) | pest or weed control at 280.212 g/ha (annual morning glory) | pest or weed control at 280.212 g/ha (pigweed) | pest or weed control at 280.212 g/ha (velvetleaf) | plant injury at 280.212 g/ha (corn) | plant injury at 280.212 g/ha (rice [1]) | plant injury at 280.212 g/ha (sorghum) | plant injury at 280.212 g/ha (wheat) | pest or weed control at 280.212 g/ha (barnyardgrass [2]) | pest or weed control at 280.212 g/ha (crabgrass) | pest or weed control at 280.212 g/ha (johnson grass) | pest or weed control at 280.212 g/ha (wild oats) | pest or weed control at 280.212 g/ha (yellow foxtail) | pest or weed control at 280.212 g/ha (yellow nutsedge [3]) | % NH4-N Remaining After 2 Weeks Incubation ([7]; 0.1 ppm) | % NH4-N Remaining After 2 Weeks Incubation ([7]; 1 ppm) | further results
1 | Cc1cc(C)n2nc(S(=O)(=O)Nc3c(Cl)cccc3Br)nc2n1 [Compound 39] | 95% | 95% | 95% | 97% | 100% | 90% | 100% | 95% | 95% | 97% | 95% | 0% | 97% | 70% | 95% | 0% | 97% | 100% | 78% | 91% | pest or weed control at 31 g/ha (rice [4]): 0%; pest or weed control at 250 g/ha (rice [4]; 0.25 Kg/Ha): 75%; pest or weed control at 31 g/ha (barnyardgrass [5]): 20%; pest or weed control at 250 g/ha (barnyardgrass [5]; 0.25 Kg/Ha): 99%; pest or weed control at 31 g/ha (sprangletop): 0%; pest or weed control at 250 g/ha (sprangletop; 0.25 Kg/Ha): 75%; pest or weed control at 31 g/ha (yellow nutsedge [6]): 85%; pest or weed control at 250 g/ha (yellow nutsedge [6]; 0.25 Kg/Ha): 99%; % NH4-N Remaining After 2 Weeks Incubation ([7]; 0.01 ppm): 49%; % NH4-N Remaining After 2 Weeks Incubation ([7]; 10 ppm): 100%
2 | Cc1cc(C)n2nc(S(=O)(=O)Nc3ccccc3Br)nc2n1 [Compound 41] | 40% | 80% | 25% | 80% | 0% | 10% | 0% | 10% | 0% | 0% | 20% | 0% | 80% | 10% | 35% | 0% | 30% | 70% | 54% | 87% | pest or weed control at 1000 g/ha (rice [4]): 97%; pest or weed control at 1000 g/ha (barnyardgrass [5]): 99%; pest or weed control at 1000 g/ha (sprangletop): 95%; pest or weed control at 1000 g/ha (yellow nutsedge [6]): 80%; % NH4-N Remaining After 2 Weeks Incubation ([7]; 0.06 ppm): 23%; % NH4-N Remaining After 2 Weeks Incubation ([7]; 10 ppm): 100%
3 | COC(=O)c1cccc(C)c1NS(=O)(=O)c1nc2nc(C)cc(C)n2n1 [Compound 50] | 80% | 95% | 95% | 100% | 100% | 80% | 100% | 93% | 99% | 97% | 100% | 100% | 95% | 25% | 95% | 60% | 95% | 99% | 38% | 73% | pest or weed control at 125 g/ha (rice [4]; 0.125 Kg/Ha): 97%; pest or weed control at 125 g/ha (barnyardgrass [5]; 0.125 Kg/Ha): 97%; pest or weed control at 125 g/ha (sprangletop; 0.125 Kg/Ha): 97%; pest or weed control at 125 g/ha (yellow nutsedge [6]; 0.125 Kg/Ha): 97%; % NH4-N Remaining After 2 Weeks Incubation ([7]; 0.01 ppm): 0%; % NH4-N Remaining After 2 Weeks Incubation ([7]; 10 ppm): 92%
4 | Cc1cc(C)n2nc(S(=O)(=O)Nc3c(F)cccc3C(=O)OC(C)C)nc2n1 [Compound 51] | 93% | 95% | 90% | 95% | 95% | 80% | 100% | 95% | 97% | 80% | 97% | 97% | 97% | 95% | 95% | 100% | 97% | 100% | – | 78% | pest or weed control at 31 g/ha (rice [4]): 0%; pest or weed control at 1000 g/ha (rice [4]): 95%; pest or weed control at 31 g/ha (barnyardgrass [5]): 35%; pest or weed control at 1000 g/ha (barnyardgrass [5]): 97%; pest or weed control at 31 g/ha (sprangletop): 0%; pest or weed control at 1000 g/ha (sprangletop): 70%; pest or weed control at 31 g/ha (yellow nutsedge [6]): 93%; pest or weed control at 1000 g/ha (yellow nutsedge [6]): 97%; % NH4-N Remaining After 2 Weeks Incubation ([7]; 0.06 ppm): 33%; % NH4-N Remaining After 2 Weeks Incubation ([7]; 0.25 ppm): 58%; % NH4-N Remaining After 2 Weeks Incubation ([7]; 4 ppm): 87%
